Laboratory results as given in patent publication US20060122282A1, “METHOD FOR TREATING SKIN DISORDERS WITH XANTHOPHYLLS” (priority 2004, published 2006).

Assay: blister healing of the skin (blisters raised, roofs cut off)
Format: in vivo, human
Settings: topical application before raising the blister; alone or in combination with xanthophylls
Source text: Experiments have been performed wherein blisters have been raised and the roofs cut off of the skins of individuals of various ages.

Structure (SMILES): CC1=C(/C=C/C(C)=C/C=C/C(C)=C/C(=O)O)C(C)(C)CCC1 [tretinoin, all-trans retinoic acid]
- healing time of blisters: halves
